{"source": "patent US20250333424A1", "about": "“ANTIVIRAL COMPOUNDS” (Gilead Sciences, Inc., priority 2024, published 2025)"}
{"system": "monocytic THP1 cells infected with HIV VSV-G pseudotyped GFP-NEF reporter virus", "test": "cells", "assay_type": "cell-based", "conditions": "Human immunodeficiency virus 1, THP-1, 24 h", "units": {"EC50": "nM"}}
{"smiles": "Cc1cc(/C=C/C#N)c(C(F)(F)F)c(C)c1Oc1nc(NC23CC(C#N)(C2)C3)nc2nn(C)cc12", "note": "[Compound 4, (E)-3-((4-(4-(2-cyanovinyl)-2,6-dimethyl-3-(trifluoromethyl)phenoxy)-2-methyl-2H-pyrazolo[3,4-d]pyrimidin-6-yl)amino)bicyclo[1.1.1]pentane-1-carbonitrile]", "EC50": 1490}
{"smiles": "Cn1cc2c(Oc3c(F)cc(/C=C/C#N)cc3Cl)nc(NC34CC(C#N)(C3)C4)nc2n1", "note": "[Compound 5, (E)-3-((4-(2-chloro-4-(2-cyanovinyl)-6-fluorophenoxy)-2-methyl-2H-pyrazolo[3,4-d]pyrimidin-6-yl)amino)bicyclo[1.1.1]pentane-1-carbonitrile]", "EC50": 26.1}
{"smiles": "Cc1cc(/C=C/C#N)cc(Cl)c1Oc1nc(NC23CC(C#N)(C2)C3)nc2nn(C)cc12", "note": "[Compound 6, (E)-3-((4-(2-chloro-4-(2-cyanovinyl)-6-methylphenoxy)-2-methyl-2H-pyrazolo[3,4-d]pyrimidin-6-yl)amino)bicyclo[1.1.1]pentane-1-carbonitrile]", "EC50": 17.4}
{"smiles": "CCc1cc(/C=C/C#N)cc(Cl)c1Oc1nc(NC23CC(C#N)(C2)C3)nc2nn(C)cc12", "note": "[Compound 7, (E)-3-((4-(2-chloro-4-(2-cyanovinyl)-6-ethylphenoxy)-2-methyl-2H-pyrazolo[3,4-d]pyrimidin-6-yl)amino)bicyclo[1.1.1]pentane-1-carbonitrile]", "EC50": 21.4}
{"smiles": "Cc1cc(/C=C/C#N)c(C)c(C)c1Oc1nc(NC23CC(C#N)(C2)C3)nc2nn(C)cc12", "note": "[Compound 8, (E)-3-((4-(4-(2-cyanovinyl)-2,3,6-trimethylphenoxy)-2-methyl-2H-pyrazolo[3,4-d]pyrimidin-6-yl)amino)bicyclo[1.1.1]pentane-1-carbonitrile]", "EC50": 44.6}
{"smiles": "Cc1cc(/C=C/C#N)cc(C)c1Oc1nc(NC23CC(C#N)(C2)C3)nc2ncn(C(F)F)c12", "note": "[Compound 12, (E)-3-((6-(4-(2-cyanovinyl)-2,6-dimethylphenoxy)-7-(difluoromethyl)-7H-purin-2-yl)amino)bicyclo[1.1.1]pentane-1-carbonitrile]", "EC50": 5.68}
{"smiles": "Cc1cc(/C=C/C#N)cc(C)c1Oc1nc(NC23CC(C#N)(C2)C3)nc2nc(C)n(C(F)F)c12", "note": "[Compound 13, (E)-3-((6-(4-(2-cyanovinyl)-2,6-dimethylphenoxy)-7-(difluoromethyl)-8-methyl-7H-purin-2-yl)amino)bicyclo[1.1.1]pentane-1-carbonitrile]", "EC50": 11.7}
{"smiles": "Cc1cc(/C=C/C#N)cc(C)c1Oc1nc(NC23CC(C#N)(C2)C3)nc2c1nc(C)n2C(F)F", "note": "[Compound 15, (E)-3-((6-(4-(2-cyanovinyl)-2,6-dimethylphenoxy)-9-(difluoromethyl)-8-methyl-9H-purin-2-yl)amino)bicyclo[1.1.1]pentane-1-carbonitrile]", "EC50": 109}
{"smiles": "CCc1nc2nc(NC34CC(C#N)(C3)C4)nc(Oc3c(C)cc(/C=C/C#N)cc3C)c2n1C(F)F", "note": "[Compound 17, (E)-3-((6-(4-(2-cyanovinyl)-2,6-dimethylphenoxy)-7-(difluoromethyl)-8-ethyl-7H-purin-2-yl)amino)bicyclo[1.1.1]pentane-1-carbonitrile]", "EC50": 21.4}
{"smiles": "Cc1cc(/C=C/C#N)cc(C)c1Oc1nc(NC23CC(C#N)(C2)C3)nc2[nH]c(=O)n(C)c12", "note": "[Compound 24, (E)-3-((6-(4-(2-cyanovinyl)-2,6-dimethylphenoxy)-7-methyl-8-oxo-8,9-dihydro-7H-purin-2-yl)amino)bicyclo[1.1.1]pentane-1-carbonitrile]", "EC50": 32}
{"smiles": "Cc1cc(/C=C/C#N)cc(C)c1Oc1nc(NC23CC(C#N)(C2)C3)nc2nc(C(F)F)n(C)c12", "note": "[Compound 25, (E)-3-((6-(4-(2-cyanovinyl)-2,6-dimethylphenoxy)-8-(difluoromethyl)-7-methyl-7H-purin-2-yl)amino)bicyclo[1.1.1]pentane-1-carbonitrile]", "EC50": 37.2}
{"smiles": "Cc1cc(/C=C/C#N)cc(C)c1Oc1nc(NC23CC(C#N)(C2)C3)nc2nc(C(F)F)[nH]c12", "note": "[Compound 26, (E)-3-((6-(4-(2-cyanovinyl)-2,6-dimethylphenoxy)-8-(difluoromethyl)-7H-purin-2-yl)amino)bicyclo[1.1.1]pentane-1-carbonitrile]", "EC50": 347}
{"smiles": "Cc1cc(/C=C/C#N)cc(C)c1Oc1nc(NC23CC(C#N)(C2)C3)nc2c1n(C(F)F)c(=O)n2C(F)F", "note": "[Compound 28, (E)-3-((6-(4-(2-cyanovinyl)-2,6-dimethylphenoxy)-7,9-bis(difluoromethyl)-8-oxo-8,9-dihydro-7H-purin-2-yl)amino)bicyclo[1.1.1]pentane-1-carbonitrile]", "EC50": 44}
{"smiles": "Cc1cc(/C=C/C#N)cc(C)c1Oc1nc(NC23CC(C#N)(C2)C3)nc2c1ncn2CC1(C#N)CC1", "note": "[Compound 45, (E)-3-((9-((1-cyanocyclopropyl)methyl)-6-(4-(2-cyanovinyl)-2,6-dimethylphenoxy)-9H-purin-2-yl)amino)bicyclo[1.1.1]pentane-1-carbonitrile]", "EC50": 53}
{"smiles": "COCCNc1nc2nc(NC34CC(C#N)(C3)C4)nc(Oc3c(C)cc(/C=C/C#N)cc3C)c2[nH]1", "note": "[Compound 46, (E)-3-((6-(4-(2-cyanovinyl)-2,6-dimethylphenoxy)-8-((2-methoxyethyl)amino)-7H-purin-2-yl)amino)bicyclo[1.1.1]pentane-1-carbonitrile]", "EC50": 88.6}
{"smiles": "CCNc1nc2nc(NC34CC(C#N)(C3)C4)nc(Oc3c(C)cc(/C=C/C#N)cc3C)c2[nH]1", "note": "[Compound 47, (E)-3-((6-(4-(2-cyanovinyl)-2,6-dimethylphenoxy)-8-(ethylamino)-7H-purin-2-yl)amino)bicyclo[1.1.1]pentane-1-carbonitrile]", "EC50": 118}
{"smiles": "Cc1cc(/C=C/C#N)cc(C)c1Oc1nc(NC23CC(C#N)(C2)C3)nc2nc(Nc3ccn(C)n3)[nH]c12", "note": "[Compound 48, (E)-3-((6-(4-(2-cyanovinyl)-2,6-dimethylphenoxy)-8-((1-methyl-1H-pyrazol-3-yl)amino)-7H-purin-2-yl)amino)bicyclo[1.1.1]pentane-1-carbonitrile]", "EC50": 151}
{"smiles": "Cc1cc(/C=C/C#N)cc(C)c1Oc1nc(NC23CC(C#N)(C2)C3)nc2nc(C3CCCCC3)[nH]c12", "note": "[Compound 51, (E)-3-((6-(4-(2-cyanovinyl)-2,6-dimethylphenoxy)-8-cyclohexyl-7H-purin-2-yl)amino)bicyclo[1.1.1]pentane-1-carbonitrile]", "EC50": 374}
{"smiles": "Cc1cc(/C=C/C#N)cc(C)c1Oc1nc(NC23CC(C#N)(C2)C3)nc2nc(C3CCOCC3)[nH]c12", "note": "[Compound 52, (E)-3-((6-(4-(2-cyanovinyl)-2,6-dimethylphenoxy)-8-(tetrahydro-2H-pyran-4-yl)-7H-purin-2-yl)amino)bicyclo[1.1.1]pentane-1-carbonitrile]", "EC50": 137}
{"smiles": "Cc1cc(/C=C/C#N)cc(C)c1Oc1nc(NC23CC(C#N)(C2)C3)nc2nc(C3CCCC3)[nH]c12", "note": "[Compound 53, (E)-3-((6-(4-(2-cyanovinyl)-2,6-dimethylphenoxy)-8-cyclopentyl-7H-purin-2-yl)amino)bicyclo[1.1.1]pentane-1-carbonitrile]", "EC50": 233}
{"smiles": "Cc1cc(/C=C/C#N)cc(C)c1Oc1nc(NC23CC(C#N)(C2)C3)nc2nc(C3CCC(F)(F)CC3)[nH]c12", "note": "[Compound 54, (E)-3-((6-(4-(2-cyanovinyl)-2,6-dimethylphenoxy)-8-(4,4-difluorocyclohexyl)-7H-purin-2-yl)amino)bicyclo[1.1.1]pentane-1-carbonitrile]", "EC50": 364}
